Results on 23 compounds are retold here after US8030489B2, “Ornithine derivative” (Astellas Pharma Inc., priority 2007, dated 2011).

In brackets after ≈: the same amount, converted by molar mass.

In one series the target is T1, rat EP4 receptor (Rattus norvegicus, UniProt P43114).
T1 construct: expressed in transfected cells; host or cells: HEK293
As to the kind of experiment: Evaluation test on rat EP4 receptor affinity ([3H]PGE2 binding assay). The settings on record: rat EP4 expressed in HEK293 membrane fraction, [3H]PGE2 0.3 nM. On the procedure: Test Example 1: Evaluation Test on Rat EP4 Receptor Affinity
Cell Culture and Transfection
Using a 10 cm collagen-coated dish (Asahi Glass), HEK293 cells were cultured in a D-MEM culture medium, washed with a phosphate buffer saline (PBS), the culture medium was removed off at a confluence (90 to 100% density state), and then the cells were detached with N,N,N′,N′-tetrakis(carboxymethyl)ethylenediamine (EDTA). The cells were counted and seeded on a 15 cm collagen-coated dish to a confluence of 70%. The next day, to an Opti-MEM culture medium at 1.2 mL/dish was added Lipofectamine 2000 (Invitrogen) at 60 μL/dish, followed by being left to stand at room temperature for 5 minutes. A plasmid in which a rat EP4 (alignment number 1) had been inserted into a TA cloning site of pcDNA3.1-V5-His-topo was added thereto to 15 μg/dish. After leaving it to stand at room temperature for 30 minutes, the resultant was added to the dish, and cultured for 20 to 24 hours. The cell culture was carried out in a CO2 incubator (37° C., 5% CO2).
Preparation of Membrane Fraction
The culture medium was removed by suction, 10 mL of cooled PBS was added thereto per 15 cm dish, and the cells were scraped using a cell scraper (Sumitomo Bakelite). They were washed with cooled PBS (1,200 rpm, 4° C., 5 min), and then suspended in 6 mL of cooled 20 mM Tris-HCl (pH 7.4; Nakalai Tesque Inc., including 5 mM EDTA (Nakalai Tesque Inc.) per dish. Then, it was homogenized using a Polytron and the homogenate was centrifuged (26,000 rpm, 20 min, 4° C.). The obtained precipitate was resuspended in cooled 20 mM Tris-HCl, and homogenized again using a Polytron, and the homogenate was centrifuged (26,000 rpm, 20 min, 4° C.). The obtained precipitate was resuspended in 50 mM HEPES (pH 7.5; Dojindo Laboratories) to 1 mL per dish, homogenized again using a Polytron, and freeze-stored at −80° C. as a membrane fraction. At this time, a part thereof was used for the measurement of the protein concentration. Measurement of the protein concentration was carried out using a Bio-Rad Protein assay kit (Bio-Rad Laboratories) in accordance with the appended standard Protocol in duplicate.
[^3H] PGE2 50 μL (final concentration 0.3 nM; Perkin Elmer), 100 μL (20 μg/well) of a membrane fraction prepared from the rat EP4 expression cell, and 50 μL of a test compound were mixed in a 96-well microplate (Sumitomo Bakelite), incubated at room temperature for 1 hour, then filtered by suction on a UniFilter-96 GF/B (Perkin Elmer) using a FilterMate Harvester (Perkin Elmer), and washed three times with 300 μL/well of a cooled assay buffer. Dilution of [^3H]PGE2 and the membrane fraction was carried out using an assay buffer (50 mM HEPES, 10 mM MgCl2), and dilution of the test compound and the unlabeled PGE2 was carried out using DMSO and an assay buffer. Further, in the case of the addition of a human serum albumin (HSA), dilution was carried out using an assay buffer containing 4% HSA (final concentration 1%; Sigma). The UniFilter-96 GF/B was treated by preliminarily washing twice with 200 μL/well of a cooled assay buffer. The UniFilter-96 GF/B after filtration was dried in a dryer overnight, 50 μL/well of MicroScint20 (Perkin Elmer) was added thereto, and then the radioactivity was measured using a TopCount (Perkin Elmer). For measurement of the non-specific binding, an unlabeled PGE2 (final concentration 1 μM; Cayman) was added. All of the measurements were carried out in duplicate, and the specific binding amount was determined by subtracting the non-specific binding amount from the total binding amount.
According to Test Example 1 as above, the rat EP4 receptor affinity (Ki) of the compound of the formula (I) was measured.

The next series can be described thus: Solubility test. In kind it is physicochemical. The settings on record: pH 1.2, simulated gastric fluid, kinetic from dmso stock; first liquid for disintegration test of Japanese Pharmacopoeia, 25° C., shaking 20 hours. The protocol: Test Example 3: Solubility Test
To 13 μL of a 10 mM DMSO solution of a test material that had been prepared in advance was added exactly 1 mL of a first liquid for a disintegration test of Japanese Pharmacopoeia, followed by shaking at 25° C. for 20 hours, thereby giving a sample stock solution. Next, using a filter impregnated with 200 μL of the sample stock solution, 200 μL of a fresh sample stock solution was added for filtration to obtain a liquid, which was taken as a sample solution. Apart from this, to 10 μL of the 10 mM DMSO solution of the test material was added accurately 1 mL of methanol, followed by stirring, thereby giving a standard solution. 10 μL of the sample solution and the standard solution were tested by liquid chromatography, respectively, and the ratio of the peak area of the sample solution to the peak area of the standard solution was determined, thereby calculating the solubility. For example, the solubilities of the compounds of Examples 23, 25, 31, 32, 50, 55, 57, 60, 93, and 284 were 51 μg/mL, 26 μg/mL, ≧53 μg/mL, 46 μg/mL, 47 μg/mL, ≧52 μg/mL, ≧50 μg/mL, 40 μg/mL, ≧53 μg/mL, and <1 μg/mL, respectively.

The test system of series [1] is urinary albumin excretion (UAE) in STZ diabetic rats. As to the kind of experiment: Effect on urine albumin in streptozotocin-induced (STZ) diabetic rats. The settings on record: male Wistar rats, STZ 50 mg/kg i.v.; 30 mg/kg oral, fourth week of administration; vehicle group 3.1±0.7 mg/day. It counts as in vivo, rat. The protocol:
Test Example 2: Test to Study the Effect on Urine Albumin in Streptozotocin-induced (STZ) Diabetic Rats.
Eight-week old male Wistar (Crj) rats were divided into groups with unbiased urinary albumin excretion (UAE), and STZ (50 mg/kg) was intravenously administered thereto. From the next day of administration of STZ, the drug was continuously orally administered, and urine was periodically collected in a metabolism cage for 24 hours to measure the UAE.

T1 sequence (P43114 whole entry): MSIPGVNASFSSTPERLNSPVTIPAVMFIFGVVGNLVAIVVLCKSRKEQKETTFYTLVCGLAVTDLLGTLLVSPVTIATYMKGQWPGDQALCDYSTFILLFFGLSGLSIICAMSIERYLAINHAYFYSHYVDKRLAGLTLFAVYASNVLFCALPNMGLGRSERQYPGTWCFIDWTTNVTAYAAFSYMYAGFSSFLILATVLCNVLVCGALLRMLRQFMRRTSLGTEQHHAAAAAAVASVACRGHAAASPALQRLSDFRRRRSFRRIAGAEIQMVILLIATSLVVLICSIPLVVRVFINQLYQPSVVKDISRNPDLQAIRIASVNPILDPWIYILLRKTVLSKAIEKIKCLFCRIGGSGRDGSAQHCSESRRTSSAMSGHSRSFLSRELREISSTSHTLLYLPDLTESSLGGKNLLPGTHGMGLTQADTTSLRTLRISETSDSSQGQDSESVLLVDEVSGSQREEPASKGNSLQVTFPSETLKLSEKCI

As a reminder, the Ki is the equilibrium dissociation constant of an inhibitor or competing ligand from its target. A low value points to a stronger hold on the target. As for `Cn1c([C@@H]2CCC[C@@H]2NC(=O)[C@H](CCCNC(=O)OCc2ccccc2)NC(=O)c2cc3ccccc3n2C)n[nH]c1=S` [Example 120], at rat EP4 receptor, the inhibition constant (Ki) turned out to be 9.8 nM.
As for `COc1ccc2[nH]c(C(=O)N[C@@H](CCCNC(=O)OCc3ccccc3)C(=O)N[C@H]3CCC[C@H]3c3nnn[nH]3)cc2c1` [Example 164], affinity on rat EP4 receptor was put at a Ki of 0.29 nM.
Regarding `CC(C)COC(=O)NCCC[C@H](NC(=O)c1cc2ccccc2n1C)C(=O)N[C@H]1CCC[C@H]1C(=O)O` [Example 159], the inhibition constant (Ki) at rat EP4 receptor was found to be 6 nM.
On rat EP4 receptor, `O=C(NCCC[C@H](NC(=O)c1cccc(Cl)n1)C(=O)N[C@H]1CCC[C@H]1C(=O)O)OCc1ccccc1` [Example 76] had a Ki of 1.8 nM.
The term solubility denotes how much of the substance goes into solution per volume. A high value points to much dissolved substance. As for `Cn1ccc2c(C(=O)N[C@@H](CCCNC(=O)OCc3ccccc3)C(=O)N[C@H]3CCC[C@H]3C(=O)O)cccc21` [Example 50], at rat EP4 receptor, the affinity corresponds to a Ki of 0.78 nM. This compound displayed a solubility at 20 h in the series “Solubility test” of 47 µg/mL (≈ 87.9 µM).
As for `Cc1cc(C)n(C)c1C(=O)N[C@@H](CCCNC(=O)OCc1ccccc1)C(=O)N[C@H]1CCC[C@H]1C(=O)O` [Example 36], at rat EP4 receptor, the affinity corresponds to a Ki of 9.8 nM.
`Cn1c(C(=O)N[C@@H](CCCNC(=O)OCc2ccccc2)C(=O)N[C@H]2CCC[C@H]2C(=O)NS(=O)(=O)CCCO)cc2ccccc21` [Example 176] displayed a Ki at rat EP4 receptor of 4 nM.
The compound `CN(C)c1cccc(C(=O)N[C@@H](CCCNC(=O)OCc2ccccc2)C(=O)N[C@H]2CCC[C@H]2C(=O)O)c1` [Example 31] showed a Ki at rat EP4 receptor of 1.1 nM. Moreover, the solubility at 20 h in “Solubility test” is at least 53 µg/mL.
Consider `Cn1c(C(=O)N[C@@H](CCCNC(=O)OCC2CCCCC2)C(=O)N[C@H]2CCC[C@H]2C(=O)O)cc2ccccc21` [Example 160], for which, on rat EP4 receptor, the inhibitory constant (Ki) worked out at 0.43 nM. This lies in the sub-nanomolar range.
`Cc1cc(C(=O)N[C@@H](CCCNC(=O)OCc2ccccc2)C(=O)N[C@H]2CCC[C@H]2C(=O)O)n(C)c1` [Example 57] came in with a Ki on rat EP4 receptor of 0.72 nM. This compound had a solubility at 20 h in “Solubility test” of at least 50 µg/mL.
For the compound `COc1ccc2[nH]c(C(=O)N[C@@H](CCCNC(=O)OCc3ccccc3)C(=O)N[C@H]3CCC[C@H]3C(=O)O)cc2c1` [Example 165], the Ki at rat EP4 receptor worked out at 0.26 nM. That is a sub-nanomolar value.
At rat EP4 receptor, `O=C(/C=C/c1ccccc1O)N[C@@H](CCCNC(=O)OCc1ccccc1)C(=O)N[C@H]1CCC[C@H]1C(=O)O` [Example 55] returned a Ki of 0.92 nM. For the same compound, the solubility at 20 h in “Solubility test” is at least 52 µg/mL.
In the case of `Cn1c(C(=O)N[C@@H](CCCNC(=O)OCc2ccccc2)C(=O)N[C@H]2CCC[C@H]2c2n[nH]c(=S)o2)cc2ccccc21` [Example 119], at rat EP4 receptor, the affinity, expressed as Ki, was 2.1 nM.
Regarding `O=C(NCCC[C@H](NC(=O)c1cccc(Cl)c1)C(=O)N[C@H]1CCC[C@H]1C(=O)O)OCc1ccccc1` [Example 32], the affinity at rat EP4 receptor corresponds to a Ki of 1.3 nM. Besides, the solubility at 20 h in “Solubility test” was 46 µg/mL (≈ 89.1 µM).
At rat EP4 receptor, `COc1ccc2c(c1)cc(C(=O)N[C@@H](CCCNC(=O)OCc1ccccc1)C(=O)N[C@H]1CCC[C@H]1c1nnn[nH]1)n2C` [Example 169] yielded a Ki of 0.29 nM. This lies in the sub-nanomolar range.
`COc1cccc(C(=O)N[C@@H](CCCNC(=O)OCc2ccccc2)C(=O)N[C@H]2CCC[C@H]2C(=O)O)c1` [Example 26]: at rat EP4 receptor, affinity was put at a Ki of 1.6 nM.
Compound `Cn1ccc2ccc(C(=O)N[C@@H](CCCNC(=O)OCc3ccccc3)C(=O)N[C@H]3CCC[C@H]3C(=O)O)cc21` [Example 25] displayed a Ki on rat EP4 receptor of 0.66 nM. In the series “Solubility test”, the solubility at 20 h was 26 µg/mL (≈ 48.6 µM).
The compound `CC(=O)c1cn(C)c2cc(C(=O)N[C@@H](CCCNC(=O)OCc3ccccc3)C(=O)N[C@H]3CCC[C@H]3C(=O)O)ccc12` [Example 60] came in with a Ki at rat EP4 receptor of 1.1 nM. For the same compound, in the series “Solubility test”, the concentration in solution (solubility at 20 h) was 40 µg/mL (≈ 69.4 µM).
As for `O=C(NCCC[C@H](NC(=O)c1ccc2ccccc2n1)C(=O)N[C@H]1CCC[C@H]1C(=O)O)OCc1ccccc1` [Example 23], on rat EP4 receptor, the Ki was found to be 0.43 nM. Moreover, the “urinary albumin excretion (UAE)” value in series [1] is 0.9 ± 0.1 mg/day. The compound further yielded a solubility at 20 h in “Solubility test” of 51 µg/mL (≈ 95.8 µM).
`Cn1c(C(=O)N[C@@H](CCCNC(=O)OCc2ccccc2)C(=O)N[C@H]2CCCC[C@H]2C(=O)O)cc2ccccc21` [Example 22]: the Ki at rat EP4 receptor is 0.53 nM.
At rat EP4 receptor, `Cn1ccc2cccc(C(=O)N[C@@H](CCCNC(=O)OCc3ccccc3)C(=O)N[C@H]3CCC[C@H]3C(=O)O)c21` [Example 93] returned a Ki of 0.79 nM. The solubility at 20 h in “Solubility test” was at least 53 µg/mL.
Consider `Cn1c(C(=O)N[C@@H](CCCNC(=O)OCc2ccccc2)C(=O)N[C@H]2CCC[C@H]2C(=O)O)cc2ccccc21` [Example 2, (1R,2S)-2-({N^5-[(benzyloxy)carbonyl]-N^2-[(1-methyl-1H-indol-2-yl)carbonyl]-L-ornithyl}amino)cyclopentanecarboxylic acid], for which the Ki at rat EP4 receptor stood at 0.92 nM.
For the compound `Cn1c(C(=O)N[C@@H](CCCNC(=O)OCc2ccccc2)C(=O)N[C@H]2CCC[C@H]2c2nnn[nH]2)cc2ccccc21` [Example 83], affinity on rat EP4 receptor was put at a Ki of 0.52 nM.
